Measurements: patent publication US9157088B2, “Transferases, epimerases, polynucleotides encoding these and uses thereof” (priority 2007, dated 2015)
Several values for one entry are separate records, joined by “and”; a condition that tells them apart may be missing. Equal entries are not always repeated. Blank lines part the entries; values can stand above or below the molecule they belong to.

Legend:
[1] = molecular target: T1, kiwifruit GDP-L-Galactose Guanyltransferase EST 319998 (Actinidia chinensis, UniProt A0A2R6QD99); assay: Continuous coupled assay of transferase activity with guanyl acceptors; conditions: for % of D-mannose-1P / Rate: sugar phosphate as guanyl acceptor, epimerase generated substrate; for Rate: N = 6; for ability to act as acceptor for the guanyl moiety / vamax / Km: FIG. 3; for ability to act as acceptor for the guanyl moiety: physiological concentrations; for vamax / Km: varying concentrations of the guanyl acceptor, continuous coupled assay
Method: Expression of genes in E. coli. The EST 319998 from young fruit of Actinidia chinensis and At4g26850 were each cloned into pET30A (Novagene, USA), their sequence checked and expressed in E. coli. The N terminal His6 tag was used to purify the protein. An empty vector control was expressed and purified in parallel. Techniques were essentially as described earlier (Laing et al., 2004).
(§1) L-Galactose dehydrogenase (Gen Bank accession AA018639 (EST 56121), 1.5 ug/assay) was cloned from an EST derived from an A. deliciosa (kiwifruit) shoot bud library with a maltose binding protein presequence and assayed as described previously (Laing et al., 2004). L-Galactose-1-Phosphate phosphatase was cloned from Arabidopsis thaliana (At3g02870, 3.1 ug/assay) and assayed as described (Laing et al., 2004). GDP-D-Mannose 3′,5′-Epimerase (198296) was cloned from dormant kiwifruit (A. deliciosa) buds three days after hydrogen cyanamide treatment and assayed as described (Wolucka et al., 2001). The former two enzymes are highly specific as to their substrates (Laing et al., 2004; Laing et al., 2004).
The assay for GDP-L-Galactose-1-Phosphate Guanyltransferase was run in 20 mM TrisCl, pH 8.0, GDP-L-Galactose, with 1 mM D-Mannose-1-Phosphate. […] In the latter case, 0.21 mg of epimerase was incubated with GDP-D-Mannose in 20 mM Tris Cl pH 8 in a total volume of 400 μL (see Wolucka et al., 2001) for 30 minutes at 20 C and then used directly in the assay at a 1 to 20 dilution. Assays were either terminated after 10 minutes by heating to 100 C for three minutes, or directly coupled to the phosphatase and L-Galactose dehydrogenase to measure product formation during the assay. Heat terminated assays were cooled on ice, centrifuged to remove precipitated protein and L-Galactose assayed using the coupling enzymes described above (see also (Laing et al., 2004)).
The applicants used two assays to characterise the enzyme, using two sources of the substrate GDP-L-Galactose. The first assay used the E. coli expressed coupling enzymes L-Galactose-1-Phosphate phosphatase and L-Galactose dehydrogenase. […] The applicants either measured the product formed by adding the coupling enzymes in the assay and measuring the time course of NADH formed, or by stopping the reaction after 10 minutes by boiling for 3 minutes and centrifuging. To this latter fixed time assay, the applicants then either adding coupling enzymes to measure L-Galactose production or using the LCMS to measure the products. The LCMS was used only to confirm the results of the coupled enzyme reaction and to measure the reverse reaction.

[2] = molecular target: T1, kiwifruit GDP-L-Galactose Guanyltransferase EST 319998; assay: Fixed time transferase assay, aliquots measured by LCMS; assay type: biochemical; conditions: acceptor Gal1P (reverse reaction)
Method: The assay for GDP-L-Galactose-1-Phosphate Guanyltransferase was run in 20 mM TrisCl, pH 8.0, GDP-L-Galactose, with 1 mM D-Mannose-1-Phosphate. GDP-L-Galactose was either used directly from the Glycoteam product (in which case high backgrounds were observed due to contaminating L-Galactose-1-Phosphate) or GDP-L-Galactose was generated using the epimerase. In the latter case, 0.21 mg of epimerase was incubated with GDP-D-Mannose in 20 mM Tris Cl pH 8 in a total volume of 400 μL (see Wolucka et al., 2001) for 30 minutes at 20 C and then used directly in the assay at a 1 to 20 dilution. Assays were either terminated after 10 minutes by heating to 100 C for three minutes, or directly coupled to the phosphatase and L-Galactose dehydrogenase to measure product formation during the assay. Heat terminated assays were cooled on ice, centrifuged to remove precipitated protein and L-Galactose assayed using the coupling enzymes described above (see also (Laing et al., 2004)). Assays for L-Galactose were linear with added L-Galactose-1-Phosphate over the range measured. Backgrounds were run using the empty vector control, which gave the same result as a boiled enzyme control.
As an alternative assay, LCMS was used to identify the forward reaction described above as well measure as the reverse pyrophosphorylase reaction where GTP (1 mM) and L-Galactose-1-Phosphate were incubated as above and the formation of GDP-L-Galactose followed. GDP-D-Mannose and GDP-L-Galactose were separated by HPLC before MS. LC-MS employed an LTQ linear ion trap mass spectrometer fitted with an ESI interface (ThermoQuest, Finnigan, San Jose, Calif., USA) coupled to an EttanTM MDLC (GE Healthcare Bio-Sciences). Separation of GDP-D-Mannose and GDP-L-Galactose was achieved using a Hypercarb column (Thermo Electron, USA), 100×2.1 mm maintained at 40 C. Solvents were (A) 50 mM ammonium acetate and (B) acetonitrile and the flow rate was 200 uL/min. The initial mobile phase, 5% B was held for 3 min, then ramped linearly to 20% B at 11 min, held for 5 min, then ramped linearly to 70% B at 19 min and held for 5 min before resetting to the original conditions. Retention times for GDP-D-Mannose and GDP-L-Galactose were 16.8 min and 17.5 min, respectively.
MS data was acquired in the negative mode using both a selective reaction monitoring (SRM) method SRM m/z 604>m/z 344, 362, 424, 442 and a selected ion monitoring (SIM) method SIM m/z 604. This SIM method monitors only the (M-H)— ion for GDP-D-Mannose and GDP-L-Galactose while the SRM method monitors the distinctive daughter ions formed by fragmenting the precursor ion (M-H)— for both compounds. Both methods maximise sensitivity by screening out any chemical noise from other compounds present. The ESI voltage, capillary temperature, sheath gas pressure, sweep gas and auxiliary gas were set at −10 V, 350° C., 25 psi, 3 psi, and 3 psi, respectively. Separation of D-Mannose-1-Phosphate and L-Galactose-1-Phosphate was achieved isocratically using a Hypercarb column (Thermo Electron, USA), 100×2.1 mm maintained at 40° C. Solvents were (A) 20 mM ammonium acetate and (B) methanol and the flow rate was 200 uL/min. Using a mobile phase of 2% B the retention times for D-Mannose-1-Phosphate and L-Galactose-1-Phosphate were 4.3 min and 4.9 min, respectively. MS data was acquired in the negative mode using both a selective reaction monitoring (SRM) method SRM m/z 259>m/z 79, 97 and a selected ion monitoring (SIM) method SIM m/z 259. […]

[3] = tested on: L-Galactose dehydrogenase; assay: L-Galactose dehydrogenase substrate specificity; assay type: biochemical, A. deliciosa (kiwifruit)
Method: as §1
The applicants used two assays to characterise the enzyme, using two sources of the substrate GDP-L-Galactose. The first assay used the E. coli expressed coupling enzymes L-Galactose-1-Phosphate phosphatase and L-Galactose dehydrogenase. […] The dehydrogenase is specific to L-Galactose, not reacting with D-Mannose or D-Galactose or a range of other sugars (Gatzek et al., 2002; Laing et al., 2004) except for L-Gulose. […] Consequently, our coupled assay would measure primarily L-Galactose and also L-Gulose. The applicants either measured the product formed by adding the coupling enzymes in the assay and measuring the time course of NADH formed, or by stopping the reaction after 10 minutes by boiling for 3 minutes and centrifuging. To this latter fixed time assay, the applicants then either adding coupling enzymes to measure L-Galactose production or using the LCMS to measure the products. The LCMS was used only to confirm the results of the coupled enzyme reaction and to measure the reverse reaction.

[4] = tested on: Tobacco (Nicotiana benthamiana) leaves; assay: Leaf ascorbate after transient transformation of tobacco leaves; assay type: in vivo; conditions: transient expression with P19
Description: Tobacco (Nicotiana benthamiana) was transiently transformed with Agrobacterium containing the kiwifruit gene for GDP-L-Galactose Guanyltransferase (EST 319998) cloned in pGreen (Hellens et al., 2000) mixed with Agrobacterium containing the gene for the silencing suppressor P19 as previously described (Hellens et al., 2005). Controls were run using Agrobacterium containing P19 in pGreen alone. Tobacco leaves were harvested 9 days after transformation and frozen in liquid nitrogen.
Ascorbate was extracted as described previously in metaphosphoric acid without reducing agent (Davey et al., 2003; Rassam and Laing, 2005). […]

T1 sequence (A0A2R6QD99 entry or part of it): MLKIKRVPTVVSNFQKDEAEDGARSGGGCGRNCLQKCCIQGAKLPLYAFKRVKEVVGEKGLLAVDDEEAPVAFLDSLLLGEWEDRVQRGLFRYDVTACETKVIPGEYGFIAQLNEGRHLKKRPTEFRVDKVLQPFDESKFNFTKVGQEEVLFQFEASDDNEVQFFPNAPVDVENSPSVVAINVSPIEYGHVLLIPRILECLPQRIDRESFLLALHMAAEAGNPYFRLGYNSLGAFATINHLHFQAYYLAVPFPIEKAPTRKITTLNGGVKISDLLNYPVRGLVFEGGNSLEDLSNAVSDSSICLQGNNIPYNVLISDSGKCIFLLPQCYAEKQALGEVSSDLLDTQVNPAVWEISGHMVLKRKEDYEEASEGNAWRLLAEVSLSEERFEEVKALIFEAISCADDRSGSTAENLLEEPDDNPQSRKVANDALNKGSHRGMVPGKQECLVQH

Molecule: O=P(O)(O)O[C@H]1O[C@H](CO)[C@H](O)[C@H](O)[C@H]1O [D-Galactose-1-P]
% of D-mannose-1P [1]: 113% | Rate [1]: 0.38 nmoles/sec/ug protein

Molecule: O=P(O)(O)O[C@H]1O[C@H](CO)[C@@H](O)[C@H](O)[C@H]1O [D-Glucose-1-P]
% of D-mannose-1P [1]: 106% and 74% | Rate [1]: 0.35 nmoles/sec/ug protein and 0.24 nmoles/sec/ug protein

Molecule: O=P(O)(O)OC[C@H]1OC(O)[C@H](O)[C@@H](O)[C@@H]1O (stereo partly drawn) [D-Glucose-6-P]
rate relative to the best acceptors ([1]; guanyl acceptor, Table 2): about 25% | % of D-mannose-1P [1]: 24% | Rate [1]: 0.08 nmoles/sec/ug protein

Molecule: O=P(O)(O)O[C@H]1O[C@H](CO)[C@@H](O)[C@H](O)[C@@H]1O [D-Mannose-1-P, D-Mannose-1-Phosphate]
ability to act as acceptor for the guanyl moiety [1]: better acceptor for the guanyl moiety than phosphate or pyrophosphate | % of D-mannose-1P [1]: 100% | Rate [1]: 0.33 nmoles/sec/ug protein | vamax [1]: 0.17±0.009 nmoles sec^−1 ug^−1 protein

Molecule: Nc1nc2c(ncn2[C@@H]2O[C@H](COP(=O)(O)OP(=O)(O)O[C@H]3O[C@H](CO)[C@@H](O)[C@H](O)[C@@H]3O)[C@@H](O)[C@H]2O)c(=O)[nH]1 [GDPMan, GDP-D-Mannose]
transferase activity, LCMS ([2]; 0.057 ug protein): 0 nmoles/sec/ug protein | transferase activity, LCMS ([2]; 1.14 ug protein): 0 nmoles/sec/ug protein

transferase activity, LCMS ([2]; 0.057 ug protein): 0 nmoles/sec/ug protein | transferase activity, LCMS ([2]; 1.14 ug protein): 0 nmoles/sec/ug protein
Molecule: Nc1nc2c(ncn2[C@@H]2O[C@H](COP(=O)(O)OP(=O)(O)OP(=O)(O)O)[C@@H](O)[C@H]2O)c(=O)[nH]1 [GTP]

KM (substrate) relative to L-Galactose [3]: 30 times | maximum velocity with L-Gulose relative to L-Galactose [3]: approximately 2.5 fold | activity compared with L-Galactose ([3]; at limiting substrate concentrations): about 8%
Molecule: O=C[C@@H](O)[C@@H](O)[C@H](O)[C@@H](O)CO [L-Gulose]

ability to act as acceptor for the guanyl moiety [1]: reaction was seen | Km [1]: 4400 ± 2000 µM | vamax [1]: 0.12±0.03 nmoles sec^−1 ug^−1 protein
Molecule: O=P(O)(O)O [phosphate, inorganic phosphate]

ability to act as acceptor for the guanyl moiety [1]: reaction was seen | Km [1]: 160 ± 50 µM | vamax [1]: 0.032±0.002 nmoles sec^−1 ug^−1 protein
Molecule: O=P(O)(O)OP(=O)(O)O [pyrophosphate, inorganic pyrophosphate]

B1: 82552_Md: GDP-L-Galactose Guanyltransferase from Malus x domesticus (apple) (protein)
chain: MLRIKRVPTVVSNYQKDEAEEVARRVGGCGRNCLNQCCIPGAKLPLYAFKKLNVNDGDTGLLGREKREPPVAFLDSLLLGEWEDRMQRGLFRYDVTACETKVIPGQFGFIAQLNEGRHLKKRPTEFRVDKVLQPFDGSKFNFTKVGQEEVLFQFEASKDGEVQFFPSAPIDVESSPSVVAINVSPIEYGHVLLIPHILERLPQRIDRESFLLALHMAAEAGNPYFRLGYNSLGAFATINHLHFQAYYLAVTFPIEKAPTKKISTLNAEVKVSELLNYPVRGLVFEGGNTLQDLSNTVSDACICLQENNIPYNVLISDSGKRIFLVPQCYAEKQALGEVRAEILDTQVNPAVWEISGHMVLKRKKDYDEASDENAWKLLAEVSLSEERFLEVNALIFEGIASGDNGNENLLKDPEVKPRSHEEVNTINKRVHCSAVNEQICRVFTM
modifications: Malus x domesticus
effect on leaf ascorbate [4]: increased ascorbate levels in the leaf
